# Results reported in the kinase profiling compilation of Christmann-Franck et al. (2016).
# pIC50: −log10 of the molar value.
# How the values were obtained:
# [1] = target: TESK2 (human) (UniProt Q96S53)
# [2] = target: ATM (human) (UniProt Q13315)
# [3] = target: PRKDC (human) (UniProt P78527)
# [4] = target: SGK223 (human) (UniProt Q86YV5)
# [5] = target: ARAF (human) (UniProt P10398)
# [6] = target: CDK10 (human) (UniProt Q15131)
# [7] = target: LRRK2 (human) (UniProt Q5S007)
# [8] = target: CDKL2 (human) (UniProt Q92772)
# [9] = target: PIK3C2B (human) (UniProt O00750)
# PRKDC (human), sequence (P78527 whole entry, looked up): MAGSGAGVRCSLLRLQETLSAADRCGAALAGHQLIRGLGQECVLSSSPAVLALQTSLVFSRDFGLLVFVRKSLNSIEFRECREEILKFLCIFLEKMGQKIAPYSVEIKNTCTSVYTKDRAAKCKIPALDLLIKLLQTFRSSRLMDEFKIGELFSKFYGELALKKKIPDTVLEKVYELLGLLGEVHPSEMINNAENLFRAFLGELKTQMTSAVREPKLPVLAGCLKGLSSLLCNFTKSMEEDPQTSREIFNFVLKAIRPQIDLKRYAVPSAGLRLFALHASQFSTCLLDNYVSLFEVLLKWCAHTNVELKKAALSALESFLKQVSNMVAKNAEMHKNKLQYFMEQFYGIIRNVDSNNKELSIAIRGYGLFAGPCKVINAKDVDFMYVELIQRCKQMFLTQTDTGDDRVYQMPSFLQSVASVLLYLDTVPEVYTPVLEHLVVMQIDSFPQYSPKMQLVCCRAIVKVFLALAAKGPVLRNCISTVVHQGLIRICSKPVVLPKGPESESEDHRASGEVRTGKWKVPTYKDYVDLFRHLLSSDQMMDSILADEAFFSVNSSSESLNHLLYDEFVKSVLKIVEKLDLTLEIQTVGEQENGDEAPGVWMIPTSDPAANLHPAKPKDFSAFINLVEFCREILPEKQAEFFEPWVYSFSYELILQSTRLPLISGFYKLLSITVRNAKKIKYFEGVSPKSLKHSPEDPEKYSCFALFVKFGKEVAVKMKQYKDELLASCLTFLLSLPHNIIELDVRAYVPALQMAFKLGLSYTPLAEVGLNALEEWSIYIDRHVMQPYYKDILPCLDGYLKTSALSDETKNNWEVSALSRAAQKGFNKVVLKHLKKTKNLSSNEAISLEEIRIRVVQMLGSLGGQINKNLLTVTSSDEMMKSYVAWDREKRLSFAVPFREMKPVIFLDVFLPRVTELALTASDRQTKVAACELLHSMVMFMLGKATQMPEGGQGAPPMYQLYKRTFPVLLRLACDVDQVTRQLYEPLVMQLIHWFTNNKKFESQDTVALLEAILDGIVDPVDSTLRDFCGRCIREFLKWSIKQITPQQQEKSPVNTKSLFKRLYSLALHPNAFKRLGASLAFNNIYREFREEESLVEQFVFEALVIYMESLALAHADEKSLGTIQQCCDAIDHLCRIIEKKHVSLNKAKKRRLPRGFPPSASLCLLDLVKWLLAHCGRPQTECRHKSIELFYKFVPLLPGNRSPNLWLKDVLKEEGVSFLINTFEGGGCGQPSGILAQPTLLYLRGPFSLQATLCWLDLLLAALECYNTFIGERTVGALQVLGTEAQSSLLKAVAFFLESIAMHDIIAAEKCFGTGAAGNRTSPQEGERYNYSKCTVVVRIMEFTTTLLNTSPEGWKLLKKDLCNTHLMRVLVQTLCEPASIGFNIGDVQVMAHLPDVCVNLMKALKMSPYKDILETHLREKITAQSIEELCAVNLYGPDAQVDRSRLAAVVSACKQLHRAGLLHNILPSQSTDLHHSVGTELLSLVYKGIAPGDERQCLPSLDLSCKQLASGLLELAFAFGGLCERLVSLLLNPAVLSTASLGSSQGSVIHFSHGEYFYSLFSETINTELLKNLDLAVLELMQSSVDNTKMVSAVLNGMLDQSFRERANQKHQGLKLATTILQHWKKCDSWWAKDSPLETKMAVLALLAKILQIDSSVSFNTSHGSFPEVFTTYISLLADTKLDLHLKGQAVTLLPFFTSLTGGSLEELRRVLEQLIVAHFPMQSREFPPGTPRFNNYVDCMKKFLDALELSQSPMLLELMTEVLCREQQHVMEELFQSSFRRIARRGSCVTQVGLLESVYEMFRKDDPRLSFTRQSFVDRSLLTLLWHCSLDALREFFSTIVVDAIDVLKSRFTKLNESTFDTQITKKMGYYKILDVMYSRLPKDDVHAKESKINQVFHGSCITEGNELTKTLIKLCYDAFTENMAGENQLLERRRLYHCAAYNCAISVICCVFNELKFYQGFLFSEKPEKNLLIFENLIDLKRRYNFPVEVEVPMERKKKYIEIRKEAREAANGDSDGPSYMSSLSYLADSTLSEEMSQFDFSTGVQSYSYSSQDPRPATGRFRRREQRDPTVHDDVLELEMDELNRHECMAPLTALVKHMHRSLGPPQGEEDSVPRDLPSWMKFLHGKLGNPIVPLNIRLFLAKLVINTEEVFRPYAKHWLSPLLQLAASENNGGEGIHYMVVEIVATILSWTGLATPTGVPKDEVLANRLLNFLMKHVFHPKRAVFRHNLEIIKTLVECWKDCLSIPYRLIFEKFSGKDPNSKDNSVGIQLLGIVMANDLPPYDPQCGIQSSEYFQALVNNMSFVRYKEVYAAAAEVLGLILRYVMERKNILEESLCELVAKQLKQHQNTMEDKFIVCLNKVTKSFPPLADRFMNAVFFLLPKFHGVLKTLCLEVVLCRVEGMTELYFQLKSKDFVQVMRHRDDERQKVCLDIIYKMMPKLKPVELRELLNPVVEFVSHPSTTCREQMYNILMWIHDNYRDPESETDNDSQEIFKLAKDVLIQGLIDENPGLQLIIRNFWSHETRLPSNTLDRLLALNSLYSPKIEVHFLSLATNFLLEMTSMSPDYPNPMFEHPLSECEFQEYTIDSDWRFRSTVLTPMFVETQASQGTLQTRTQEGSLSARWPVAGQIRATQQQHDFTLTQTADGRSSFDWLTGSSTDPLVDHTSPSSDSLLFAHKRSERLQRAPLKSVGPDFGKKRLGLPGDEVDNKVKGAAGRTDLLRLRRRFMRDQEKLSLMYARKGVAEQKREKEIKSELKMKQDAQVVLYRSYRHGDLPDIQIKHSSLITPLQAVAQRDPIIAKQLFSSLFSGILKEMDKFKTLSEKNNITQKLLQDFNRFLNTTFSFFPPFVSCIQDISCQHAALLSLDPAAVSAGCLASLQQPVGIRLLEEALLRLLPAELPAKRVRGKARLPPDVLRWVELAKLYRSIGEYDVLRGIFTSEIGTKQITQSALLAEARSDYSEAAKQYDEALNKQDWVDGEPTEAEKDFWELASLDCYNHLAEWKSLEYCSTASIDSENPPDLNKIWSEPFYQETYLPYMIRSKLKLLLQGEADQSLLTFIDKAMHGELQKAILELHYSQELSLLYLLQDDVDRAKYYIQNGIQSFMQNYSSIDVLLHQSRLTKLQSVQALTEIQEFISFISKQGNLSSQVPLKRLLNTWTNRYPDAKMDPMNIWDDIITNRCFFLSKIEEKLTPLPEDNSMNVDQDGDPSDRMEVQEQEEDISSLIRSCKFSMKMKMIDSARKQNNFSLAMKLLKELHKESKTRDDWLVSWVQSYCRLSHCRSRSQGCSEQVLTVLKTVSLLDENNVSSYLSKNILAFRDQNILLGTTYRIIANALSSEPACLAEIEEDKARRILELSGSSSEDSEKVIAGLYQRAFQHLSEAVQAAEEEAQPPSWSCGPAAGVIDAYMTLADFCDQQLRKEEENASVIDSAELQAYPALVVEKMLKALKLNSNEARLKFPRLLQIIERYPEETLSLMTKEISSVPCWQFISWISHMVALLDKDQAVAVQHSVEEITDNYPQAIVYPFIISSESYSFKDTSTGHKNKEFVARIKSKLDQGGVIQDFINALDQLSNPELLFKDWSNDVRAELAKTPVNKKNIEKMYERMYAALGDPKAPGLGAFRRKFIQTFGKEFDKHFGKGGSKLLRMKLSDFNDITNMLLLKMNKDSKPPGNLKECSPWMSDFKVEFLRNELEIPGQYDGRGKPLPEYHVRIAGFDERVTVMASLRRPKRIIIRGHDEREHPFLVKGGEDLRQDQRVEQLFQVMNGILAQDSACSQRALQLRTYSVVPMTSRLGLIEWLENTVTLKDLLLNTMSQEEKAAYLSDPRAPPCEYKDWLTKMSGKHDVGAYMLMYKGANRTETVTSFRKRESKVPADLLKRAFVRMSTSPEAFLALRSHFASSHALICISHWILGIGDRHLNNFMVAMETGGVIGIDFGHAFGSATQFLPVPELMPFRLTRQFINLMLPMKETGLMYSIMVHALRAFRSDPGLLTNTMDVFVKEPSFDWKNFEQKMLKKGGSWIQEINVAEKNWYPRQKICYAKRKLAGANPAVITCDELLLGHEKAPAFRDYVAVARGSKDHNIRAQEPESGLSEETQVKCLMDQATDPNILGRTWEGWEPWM
# ARAF (human), sequence (P10398 whole entry, looked up): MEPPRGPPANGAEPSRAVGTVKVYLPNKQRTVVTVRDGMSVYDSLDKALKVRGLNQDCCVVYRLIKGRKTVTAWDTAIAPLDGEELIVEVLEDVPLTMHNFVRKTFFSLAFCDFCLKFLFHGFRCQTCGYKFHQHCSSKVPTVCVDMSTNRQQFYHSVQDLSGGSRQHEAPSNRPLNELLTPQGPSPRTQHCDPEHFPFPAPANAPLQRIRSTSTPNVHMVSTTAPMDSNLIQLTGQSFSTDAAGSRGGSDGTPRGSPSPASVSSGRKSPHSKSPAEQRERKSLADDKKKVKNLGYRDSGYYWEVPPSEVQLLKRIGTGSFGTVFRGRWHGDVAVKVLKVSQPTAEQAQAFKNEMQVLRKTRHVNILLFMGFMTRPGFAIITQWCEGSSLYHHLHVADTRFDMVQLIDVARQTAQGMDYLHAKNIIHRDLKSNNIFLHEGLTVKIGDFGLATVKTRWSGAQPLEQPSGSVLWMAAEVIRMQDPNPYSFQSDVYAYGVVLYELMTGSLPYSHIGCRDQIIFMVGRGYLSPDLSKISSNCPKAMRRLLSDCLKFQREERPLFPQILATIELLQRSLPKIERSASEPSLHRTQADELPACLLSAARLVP
# CDK10 (human), sequence (Q15131 whole entry, looked up): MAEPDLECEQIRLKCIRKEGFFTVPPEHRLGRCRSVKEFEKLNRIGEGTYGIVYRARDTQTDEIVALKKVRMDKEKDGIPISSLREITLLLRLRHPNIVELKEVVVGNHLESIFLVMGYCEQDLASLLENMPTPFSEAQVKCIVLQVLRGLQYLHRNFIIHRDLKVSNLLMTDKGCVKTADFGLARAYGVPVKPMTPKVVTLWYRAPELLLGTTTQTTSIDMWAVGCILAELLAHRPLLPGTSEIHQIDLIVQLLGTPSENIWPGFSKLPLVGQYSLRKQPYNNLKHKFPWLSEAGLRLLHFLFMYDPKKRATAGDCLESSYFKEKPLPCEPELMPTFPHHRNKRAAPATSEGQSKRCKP
pIC50 [1],pIC50 [2],pIC50 [3],pIC50 [7],pIC50 [8],pIC50 [9],SMILES,pIC50 [4],pIC50 [5],pIC50 [6]
< 5.00,< 5.00,< 5.00,–,–,–,CC(C)(C)c1cnc(CSc2cnc(NC(=O)C3CCNCC3)s2)o1,–,–,–
–,< 5.00,< 5.00,< 5.00,< 5.00,< 5.00,CC[C@@H](CO)Nc1nc(NCc2ccccc2)c2ncn(C(C)C)c2n1,< 5.00,–,–

SMILES,pIC50 [1],pIC50 [2],pIC50 [3],pIC50 [7],pIC50 [8],pIC50 [9],pIC50 [4],pIC50 [5],pIC50 [6]
CN[C@@H]1C[C@H]2O[C@@](C)([C@@H]1OC)n1c3ccccc3c3c4c(c5c6ccccc6n2c5c31)C(=O)NC4,–,< 5.00,< 5.00,–,–,–,5.30,< 5.00,6.06
